Legend:
Assay type in all cases: in vivo
[1] = test system: ryegrass, Italian (Lolium multiflorum); assay: Test A postemergence, Italian ryegrass; details: 0 to 100 scale, 0 no effect, 100 complete control
Method in brief: (§1)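 Steps: plant seeds in loam/sand; spray soil (pre) or seedlings at 1–2 leaves, 2–10 cm (post) with compound in solvent plus surfactant; keep in greenhouse ~10 d; score injury visually against untreated controls, 0–100.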

[2] = test system: ragweed (common ragweed, Ambrosia elatior); assay: Test A preemergence, ragweed; details: 0 to 100 scale, 0 is no effect, 100 is complete control
Method in brief: as §1

[3] = test system: ragweed (common ragweed, Ambrosia elatior); assay: Test A postemergence, ragweed; details: 0 to 100 scale, 0 no effect, 100 complete control
Method in brief: as §1

[4] = test system: blackgrass (Alopecurus myosuroides); assay: Test A postemergence, blackgrass; details: 0 to 100 scale, 0 no effect, 100 complete control
Method in brief: as §1

[5] = test system: barnyardgrass (Echinochloa crus-galli); assay: Test B flooded paddy test, barnyardgrass; details: Flood, 250 g ai/ha, applied to paddy water, 2-leaf stage, visual evaluation after 13 to 15 d
Method in brief: (§2)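 Plants grown to 2-leaf stage. Compounds applied directly into paddy water flooded 3 cm above soil, with that depth kept throughout. After 13–15 d in greenhouse, visual rating versus controls on a 0–100 scale (0 no effect, 100 complete control).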

kochia (Kochia scoparia) [6] = assay: Test A postemergence, kochia; details: 0 to 100 scale, 0 no effect, 100 complete control
Method in brief: as §1

[7] = test system: sedge, umbrella (small-flower umbrella sedge, Cyperus difformis); assay: Test B flooded paddy test, umbrella sedge; details: Flood, 250 g ai/ha, applied to paddy water, 2-leaf stage, visual evaluation after 13 to 15 d
Method in brief: as §2

[8] = test system: pigweed (Amaranthus retroflexus); assay: Test A postemergence, pigweed; details: 0 to 100 scale, 0 no effect, 100 complete control
Method in brief: as §1

[9] = test system: foxtail, giant (Setaria faberii); assay: Test A preemergence, giant foxtail; details: 0 to 100 scale, 0 is no effect, 100 is complete control
Method in brief: as §1

[10] = test system: galium (catchweed bedstraw, Galium aparine); assay: Test A postemergence, galium; details: 0 to 100 scale, 0 no effect, 100 complete control
Method in brief: as §1

kochia (Kochia scoparia) [11] = assay: Test A preemergence, kochia; details: 0 to 100 scale, 0 is no effect, 100 is complete control
Method in brief: as §1

rice (Oryza sativa) = assay: Test B flooded paddy test, rice; details: Flood, 250 g ai/ha, applied to paddy water, 2-leaf stage, visual evaluation after 13 to 15 d
Method in brief: as §2

[12] = test system: foxtail, giant (Setaria faberii); assay: Test A postemergence, giant foxtail; details: 0 to 100 scale, 0 no effect, 100 complete control
Method in brief: as §1

[13] = test system: pigweed (Amaranthus retroflexus); assay: Test A preemergence, pigweed; details: 0 to 100 scale, 0 is no effect, 100 is complete control
Method in brief: as §1

[14] = test system: ryegrass, Italian (Lolium multiflorum); assay: Test A preemergence, Italian ryegrass; details: 0 to 100 scale, 0 is no effect, 100 is complete control
Method in brief: as §1

corn (Zea mays) = assay: Test A postemergence, corn; details: 0 to 100 scale, 0 no effect, 100 complete control
Method in brief: as §1

[15] = test system: wheat (Triticum aestivum); assay: Test A postemergence, wheat; details: 0 to 100 scale, 0 no effect, 100 complete control
Method in brief: as §1

[16] = test system: barnyardgrass (Echinochloa crus-galli); assay: Test A postemergence, barnyardgrass; details: 0 to 100 scale, 0 no effect, 100 complete control
Method in brief: as §1

[17] = test system: barnyardgrass (Echinochloa crus-galli); assay: Test A preemergence, barnyardgrass; details: 0 to 100 scale, 0 is no effect, 100 is complete control
Method in brief: as §1

[18] = test system: ducksalad (Heteranthera limosa); assay: Test B flooded paddy test, ducksalad; details: Flood, 250 g ai/ha, applied to paddy water, 2-leaf stage, visual evaluation after 13 to 15 d
Method in brief: as §2

SMILES | Plant response rating, Ryegrass, Italian ([1]; 125 g ai/ha) | Plant response rating, Ryegrass, Italian ([1]; 500 g ai/ha) | Ragweed plant response rating ([2]; 125 g ai/ha) | Ragweed plant response rating ([2]; 500 g ai/ha) | Plant response rating, Ragweed ([3]; 125 g ai/ha) | Plant response rating, Ragweed ([3]; 500 g ai/ha) | Plant response rating, Blackgrass ([4]; 125 g ai/ha) | Plant response rating, Blackgrass ([4]; 500 g ai/ha) | Plant response rating, Barnyardgrass (0 to 100 scale, 0 is no effect, 100 is complete control) [5] | Plant response rating, Kochia (kochia (Kochia scoparia) [6]; 125 g ai/ha) | Plant response rating, Kochia (kochia (Kochia scoparia) [6]; 500 g ai/ha) | Plant response rating, Sedge, Umbrella (0 to 100 scale, 0 is no effect, 100 is complete control) [7] | Plant response rating, Pigweed ([8]; 125 g ai/ha) | Plant response rating, Pigweed ([8]; 500 g ai/ha) | Foxtail, Giant plant response rating ([9]; 125 g ai/ha) | Foxtail, Giant plant response rating ([9]; 500 g ai/ha) | Plant response rating, Galium ([10]; 125 g ai/ha) | Plant response rating, Galium ([10]; 500 g ai/ha) | Kochia plant response rating (kochia (Kochia scoparia) [11]; 125 g ai/ha) | Kochia plant response rating (kochia (Kochia scoparia) [11]; 500 g ai/ha) | also measured
CC(Nc1ncc(C(F)(F)F)c(N)n1)c1coc2cc(Cl)ccc12 (racemic) [Compound 77] | 0 | 40 | 80 | 90 | 20 | 90 | 0 | 0 | 0 | 30 | 90 | 0 | 70 | 100 | 20 | 40 | 50 | 80 | 50 | 60 | Plant response rating, Rice (0 to 100 scale, 0 is no effect, 100 is complete control) (rice (Oryza sativa)): 0; Plant response rating, Foxtail, Giant ([12]; 125 g ai/ha): 0; Plant response rating, Foxtail, Giant ([12]; 500 g ai/ha): 20; Pigweed plant response rating ([13]; 125 g ai/ha): 40; Pigweed plant response rating ([13]; 500 g ai/ha): 90; Ryegrass, Italian plant response rating ([14]; 125 g ai/ha): 20; Ryegrass, Italian plant response rating ([14]; 500 g ai/ha): 30; Plant response rating, Corn (corn (Zea mays); 125 g ai/ha): 0; Plant response rating, Corn (corn (Zea mays); 500 g ai/ha): 20; Plant response rating, Wheat ([15]; 125 g ai/ha): 20; Plant response rating, Wheat ([15]; 500 g ai/ha): 30; Plant response rating, Barnyardgrass ([16]; 125 g ai/ha): 0; Plant response rating, Barnyardgrass ([16]; 500 g ai/ha): 0; Barnyardgrass plant response rating ([17]; 125 g ai/ha): 0; Barnyardgrass plant response rating ([17]; 500 g ai/ha): 0; Plant response rating, Ducksalad (0 to 100 scale, 0 is no effect, 100 is complete control) [18]: 0
Nc1nc(NC(c2cc3ccccc3s2)C2CC2)ncc1C(F)(F)F (racemic) [Compound 94] | 50 | 90 | 50 | 90 | 50 | 70 | 0 | 0 | 35 | 70 | 90 | 45 | 90 | 100 | 70 | 100 | 40 | 80 | 60 | 90 | Plant response rating, Rice (0 to 100 scale, 0 is no effect, 100 is complete control) (rice (Oryza sativa)): 10; Plant response rating, Foxtail, Giant ([12]; 125 g ai/ha): 60; Plant response rating, Foxtail, Giant ([12]; 500 g ai/ha): 90; Pigweed plant response rating ([13]; 125 g ai/ha): 60; Pigweed plant response rating ([13]; 500 g ai/ha): 100; Ryegrass, Italian plant response rating ([14]; 125 g ai/ha): 50; Ryegrass, Italian plant response rating ([14]; 500 g ai/ha): 90; Plant response rating, Corn (corn (Zea mays); 125 g ai/ha): 0; Plant response rating, Corn (corn (Zea mays); 500 g ai/ha): 20; Plant response rating, Wheat ([15]; 125 g ai/ha): 0; Plant response rating, Wheat ([15]; 500 g ai/ha): 30; Plant response rating, Barnyardgrass ([16]; 125 g ai/ha): 40; Plant response rating, Barnyardgrass ([16]; 500 g ai/ha): 90; Barnyardgrass plant response rating ([17]; 125 g ai/ha): 0; Barnyardgrass plant response rating ([17]; 500 g ai/ha): 90; Plant response rating, Ducksalad (0 to 100 scale, 0 is no effect, 100 is complete control) [18]: 40

Reference: US20220119354A1, “DIAMINO-SUBSTITUTED PYRIDINES AND PYRIMIDINES AS HERBICIDES” (FMC Corporation, priority 2019, published 2022)
